# Reference: patent US8188135B2, “Compounds as cannabinoid receptor ligands” (priority 2008, dated 2012)
# Legend:
# [1] = pharmacokinetic studies in rats; conditions: male, Sprague-Dawley, rat, in vivo; for clearance / half-life: iv, 3 micromole/kg; for bioavailability: po, 10 micromole/kg
# Method: Male Sprague-Dawley rats, weighing 250-400 g, were obtained from Charles Rivers Laboratories. Pharmacokinetic studies were conducted in three groups of rats; each group contained three animals. All groups were dosed with a solution formulation. The first group of three rats received an intravenous dose, administered under isoflurane anesthetic. The second group received an intraperitoneal dose and the third group received an oral dose, administered by gavage. Sequential blood samples were obtained from a tail vein of each animal for 8-24 hours after dosing. Plasma was separated by centrifugation and stored frozen until analysis.
# Half life […] and plasma clearance values are based on intravenous administration (3 micromole/kg).
# Half life (t1/2) and plasma clearance values are based on intravenous administration (3 micromole/kg).
# rat CB2 [2] = target: T1, rat CB2 (Rattus norvegicus, UniProt Q9QZN9); experiment: rat CB2 cyclase functional assay (HitHunter cAMP); assay type: cell-based; parameters: expressed in transfected cells; host or cells: HEK; conditions: rat CB2 cyclase (EC50, nM), HEK cells, forskolin 18 μM
# T1 sequence (Q9QZN9 1-360): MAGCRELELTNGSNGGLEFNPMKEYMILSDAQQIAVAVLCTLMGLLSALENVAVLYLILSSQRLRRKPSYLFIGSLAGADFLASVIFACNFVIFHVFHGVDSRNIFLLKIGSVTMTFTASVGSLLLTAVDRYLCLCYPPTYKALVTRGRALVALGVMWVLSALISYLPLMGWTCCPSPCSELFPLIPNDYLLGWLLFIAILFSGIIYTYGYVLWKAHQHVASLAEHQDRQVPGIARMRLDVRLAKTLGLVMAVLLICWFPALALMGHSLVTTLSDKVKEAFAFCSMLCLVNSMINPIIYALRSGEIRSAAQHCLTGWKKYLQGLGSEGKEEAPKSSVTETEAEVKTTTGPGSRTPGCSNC
# Procedure, shortened: (§1)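 HEK cells expressing rat CB1 or CB2, 10,000 cells/well, incubated 20 min at 37° C with test ligands plus forskolin (37 μM for CB1, 18 μM for CB2) in DPBS with 0.01% BSA. cAMP read by enzyme-complementation luminescence after lysis; EC50 from sigmoidal dose-response fit.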
# human CB2 receptors = target: T2, human CB2 receptors (Homo sapiens, UniProt P34972); experiment: human CB2 radioligand binding assay ([3H]CP 55,940 competition); conditions: human CB2 (Ki, nM), HEK293 membranes, 0.5 nM [3H]CP 55,940
# T2 construct: expressed in transfected cells; host or cells: HEK293
# T2 sequence (P34972 whole entry): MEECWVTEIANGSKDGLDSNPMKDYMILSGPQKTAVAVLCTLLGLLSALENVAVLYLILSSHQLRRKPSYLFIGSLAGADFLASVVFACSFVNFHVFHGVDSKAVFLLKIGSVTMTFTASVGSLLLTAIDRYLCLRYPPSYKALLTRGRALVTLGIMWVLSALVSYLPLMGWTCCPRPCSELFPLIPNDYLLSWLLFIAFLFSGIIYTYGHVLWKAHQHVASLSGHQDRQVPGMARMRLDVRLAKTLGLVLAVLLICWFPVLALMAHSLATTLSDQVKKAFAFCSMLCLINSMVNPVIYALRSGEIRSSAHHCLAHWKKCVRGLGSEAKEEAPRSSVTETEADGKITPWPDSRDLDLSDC
# Procedure, shortened: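 Displacement of 0.5 nM [3H]CP 55,940 over 0.01 nM-10 μM test compound, measured on human CB2 membranes from stably transfected HEK293 cells. Incubation 90 min at 30 °C in Tris/EDTA/MgCl2/BSA, pH 7.4, then filter-bound radioactivity counted; 10 μM unlabeled CP 55,940 defined nonspecific binding.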
# rat CB2 [3] = target: T1, rat CB2; experiment: rat CB2 radioligand binding assay ([3H]CP 55,940 competition); parameters: expressed in transfected cells; host or cells: HEK293; conditions: rat CB2 (Ki, nM), HEK293 membranes, 0.5 nM [3H]CP 55,940
# Procedure, shortened: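 Competition binding against 0.5 nM [3H]CP 55,940 (pH 7.4 buffer with 0.5 mg/mL BSA, 30 °C, 45 min), with displacers spanning 0.01 nM–10 μM at five concentrations. Receptor source: stably transfected HEK293 membranes, 20 μg/well. Nonspecific binding defined by 10 μM unlabeled CP 55,940; readout by filtration and counting.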
# Rat CB1 = target: T3, Rat CB1 (Rattus norvegicus, UniProt P20272); experiment: rat CB1 cyclase functional assay (HitHunter cAMP); assay type: cell-based; conditions: Rat CB1 cyclase (EC50, nM), HEK cells, forskolin 37 μM
# T3 construct: expressed in transfected cells; host or cells: HEK
# T3 sequence (P20272 whole entry): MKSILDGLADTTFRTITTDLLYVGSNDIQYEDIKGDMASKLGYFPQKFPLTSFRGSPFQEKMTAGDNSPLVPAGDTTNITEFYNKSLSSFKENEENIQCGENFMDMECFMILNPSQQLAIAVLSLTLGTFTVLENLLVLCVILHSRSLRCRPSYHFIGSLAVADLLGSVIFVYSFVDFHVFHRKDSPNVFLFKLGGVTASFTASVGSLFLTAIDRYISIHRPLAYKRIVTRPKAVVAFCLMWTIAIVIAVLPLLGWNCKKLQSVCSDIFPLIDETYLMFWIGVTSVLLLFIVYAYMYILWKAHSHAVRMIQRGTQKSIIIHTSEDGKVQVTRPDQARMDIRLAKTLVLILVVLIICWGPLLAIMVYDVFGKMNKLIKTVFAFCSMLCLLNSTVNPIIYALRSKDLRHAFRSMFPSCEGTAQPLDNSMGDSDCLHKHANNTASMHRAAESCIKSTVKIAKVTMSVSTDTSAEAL
# Procedure, shortened: as §1
SMILES,clearance [1] [mL/min/kg],half-life [1] [h],bioavailability [1] [%],EC50 (rat CB2 [2]) [nM],Ki (human CB2 receptors) [nM],Ki (rat CB2 [3]) [nM],EC50 (Rat CB1) [nM]
"Cn1c(C(C)(C)C)c/c(=N\C(=O)c2cc(C#N)ccc2OCC(C)(C)O)n1C[C@H]1CCCO1 [Example 90, N-{(3E)-5-tert-butyl-1-methyl-2-[(2R)-tetrahydrofuran-2-ylmethyl]-1,2-dihydro-3 H-pyrazol-3-ylidene}-5-cyano-2-(2-hydroxy-2-methylpropoxy)benzamide]",41.7,2.1,28,1.8,41,11,> 27000
"Cn1c(C(C)(C)C)c/c(=N\C(=O)c2cc(C#N)ccc2OCC(C)(C)O)n1CC1CCCC1 [Example 127, N-[(3E)-5-tert-butyl-2-(cyclopentylmethyl)-1-methyl-1,2-dihydro-3H-pyrazol-3-ylidene]-5-cyano-2-(2-hydroxy-2-methylpropoxy)benzamide]",46.7,0.8,60,1.78,47,12,> 27000
